{"source": "paper PMC10010643", "about": "(Cancer Chemotherapy and Pharmacology, 2023)", "key": {"[1]": {"test_system": "human liver stellate cell line", "set-up": "method as in PMID 36154172", "details": "in vitro; cited from earlier work"}, "[2]": {"test_system": "programmed cell death protein 1 and PD-L1", "details": "pembrolizumab and atezolizumab; cited from earlier work"}, "lung fibrosis": {"test_system": "lung fibrosis", "set-up": "method as in PMID 36154172", "details": "bleomycin-induced; cited from earlier work"}, "[3]": {"assay": "Urine PK, Part A single oral doses in healthy participants", "type": "in vivo, human", "details": "for CL renal: human", "experimental": "A further two cohorts were recruited. […] Each individual participated in one treatment period only, with the exception of the food-effect cohort (cohort A3) in which there were two treatment periods separated by at least 7 days washout. Participants resided at the Clinical Research Unit (CRU) from 1 day ahead of dosing (day − 1) to day 3 and returned for a follow-up visit 5–7 days after their final dose. For all cohorts, doses were administered in the fasted state in the morning of day 1 of Treatment Period 1. In the food-effect cohort, doses were given 30 min after the start of a high-fat breakfast (973 calories total: approximately 150 protein calories, 250 carbohydrate calories, and 500–600 fat calories) on day 1 of Treatment Period 2. For cohorts A1 to A5 in Treatment Period 1, dosing occurred such that one pair (one active and one placebo) were dosed at least 24 h before the remaining participants. Continuation to dose those who remained was at the investigator’s discretion. Escalating doses were administered following satisfactory sponsor and investigator review of the safety and tolerability data (up to 48 h post-final dose) and PK data (up to 24 h post-final dose) from the lower dose levels.\nUrine was collected by spot collection in Part A only before dosing and between 0–6, 6–12, 12–24, and 24–48 h post-dose. Blood and urine aliquots were stored in polypropylene tubes at − 70 °C until bioanalysis.\nNoncompartmental PK analysis was performed on individual plasma and urine concentration data, using Phoenix® WinNonlin® 8.1 software (Certara USA Inc., Princeton NJ). Plasma PK parameter endpoints for Part A included area under the plasma concentration–time curve (AUC) from time 0 to infinity (AUC0–∞), AUC from time 0 to the time of the last quantifiable concentration (AUC0–tlast), maximum observed plasma concentration (Cmax), time of the maximum observed plasma concentration (Tmax), terminal half-life in plasma (t½), apparent total plasma clearance (CL/F), and apparent volume of distribution (Vz/F). Urine PK parameters calculated in Part A included amount of drug excreted in urine (Ae), percentage of dose excreted unchanged in urine (fe) and renal clearance (CLR)."}, "human macrophages": {"test_system": "human macrophages", "set-up": "method as in PMID 36154172", "details": "in vitro; cited from earlier work"}, "[4]": {"assay": "Maximum recommended starting dose in humans from preclinical studies", "set-up": "species or system human", "experimental": "A starting dose of 5 mg was chosen as this was approximately twofold lower than the maximum recommended starting dose (MRSD) in humans of 9.6 mg determined from the results of a murine PD study, and was therefore not expected to have any pharmacological activity. This dose was also more than 30-fold lower than the MRSD of 162 mg calculated from the no observed adverse effect level in the toxicology species (mouse and dog)."}, "[5]": {"assay": "Fraction of unbound GB1211 in plasma", "type": "in vitro ADME", "details": "human"}, "[6]": {"details": "single dose 5 mg (1 × 5 mg), fasted"}, "[7]": {"details": "single dose 20 mg (4 × 5 mg), fasted"}, "[8]": {"details": "single dose 50 mg (1 × 50 mg), fasted"}, "[9]": {"details": "single dose 50 mg (1 × 50 mg), fed"}, "[10]": {"details": "single dose 50 mg (10 × 5 mg), fasted"}, "[11]": {"details": "single dose 100 mg (2 × 50 mg), fasted"}, "[12]": {"details": "single dose 200 mg (4 × 50 mg), fasted"}, "[13]": {"details": "single dose 400 mg (8 × 50 mg), fasted"}}, "note": "Read-outs that look alike come from different tables or passages of the source."}
{"smiles": "OC[C@H]1O[C@H](Sc2cncc(Br)c2)[C@H](O)[C@@H](n2cc(-c3cc(F)c(F)c(F)c3)nn2)[C@H]1O", "note": "[GB1211]", "values": [{"measurement": "TGFβ-induced fibrosis gene expression", "setting": "[1]", "value": "inhibiting TGFβ-induced fibrosis gene expression"}, {"measurement": "Galectin-3-induced inhibition of immune checkpoint inhibitor binding", "setting": "[2]", "value": "reverses"}, {"measurement": "Fibrosis in vivo, lung", "setting": "lung fibrosis", "value": "reducing fibrosis"}, {"measurement": "Geometric mean fe(0–48 h), range across doses", "setting": "[3]; 5–50 mg dose range (5 mg capsule)", "value": "26.8–30.0%"}, {"measurement": "Geometric mean fe(0–48 h), range across doses", "setting": "[3]; 50–400 mg dose range (50 mg capsules; fasted state)", "value": "10.5–18.7%"}, {"measurement": "Renal elimination mechanism", "setting": "[3]; CLR greater than GFR corrected for fu", "value": "undergoes active secretion in the kidney"}, {"measurement": "Glomerular filtration rate corrected for the fraction of unbound GB1211 in plasma", "setting": "[3]; GFR approximately 7.5 L/h, fu 5.34%", "value": "approximately 0.4 L/h"}, {"measurement": "CL renal", "setting": "[3]; urine and plasma, po, single oral dose, read-out: Geometric mean CLR, range across all doses", "value": "30.5 to 44.5", "unit": "mL/min"}, {"measurement": "CL renal", "setting": "[3]; urine, oral, 5 mg, single dose 5 mg (1 × 5 mg), fasted, read-out: CLR, geometric mean (CV%) (converted)", "value": 35.3, "unit": "mL/min"}, {"measurement": "CL renal", "setting": "[3]; urine, oral, 20 mg, single dose 20 mg (4 × 5 mg), fasted, read-out: CLR, geometric mean (CV%) (converted)", "value": 31.7, "unit": "mL/min"}, {"measurement": "CL renal", "setting": "[3]; urine, oral, 50 mg, single dose 50 mg (1 × 50 mg), fasted, read-out: CLR, geometric mean (CV%) (converted)", "value": 37.3, "unit": "mL/min"}, {"measurement": "CL renal", "setting": "[3]; urine, oral, 50 mg, single dose 50 mg (1 × 50 mg), fed, read-out: CLR, geometric mean (CV%) (converted)", "value": 36.7, "unit": "mL/min"}, {"measurement": "CL renal", "setting": "[3]; urine, oral, 50 mg, single dose 50 mg (10 × 5 mg), fasted, read-out: CLR, geometric mean (CV%) (converted)", "value": 32.3, "unit": "mL/min"}, {"measurement": "CL renal", "setting": "[3]; urine, oral, 100 mg, single dose 100 mg (2 × 50 mg), fasted, read-out: CLR, geometric mean (CV%) (converted)", "value": 43.2, "unit": "mL/min"}, {"measurement": "CL renal", "setting": "[3]; urine, oral, 200 mg, single dose 200 mg (4 × 50 mg), fasted, read-out: CLR, geometric mean (CV%) (converted)", "value": 30.5, "unit": "mL/min"}, {"measurement": "CL renal", "setting": "[3]; urine, oral, 400 mg, single dose 400 mg (8 × 50 mg), fasted, read-out: CLR, geometric mean (CV%) (converted)", "value": 44.5, "unit": "mL/min"}, {"measurement": "Ae (0–48 h), geometric mean (CV%)", "setting": "[3]; [6]", "value": "1.43 (27.0) mg"}, {"measurement": "fe (0–48 h), geometric mean (CV%)", "setting": "[3]; [6]", "value": "28.7 (27.0) %"}, {"measurement": "Ae (0–48 h), geometric mean (CV%)", "setting": "[3]; [7]", "value": "6.00 (19.7) mg"}, {"measurement": "fe (0–48 h), geometric mean (CV%)", "setting": "[3]; [7]", "value": "30.0 (19.7) %"}, {"measurement": "Ae (0–48 h), geometric mean (CV%)", "setting": "[3]; [8]", "value": "9.34 (44.1) mg"}, {"measurement": "fe (0–48 h), geometric mean (CV%)", "setting": "[3]; [8]", "value": "18.7 (44.1) %"}, {"measurement": "Ae (0–48 h), geometric mean (CV%)", "setting": "[3]; [9]", "value": "10.9 (33.5) mg"}, {"measurement": "fe (0–48 h), geometric mean (CV%)", "setting": "[3]; [9]", "value": "21.7 (33.5) %"}, {"measurement": "Ae (0–48 h), geometric mean (CV%)", "setting": "[3]; [10]", "value": "13.4 (38.7) mg"}, {"measurement": "fe (0–48 h), geometric mean (CV%)", "setting": "[3]; [10]", "value": "26.8 (38.7) %"}, {"measurement": "Ae (0–48 h), geometric mean (CV%)", "setting": "[3]; [11]", "value": "15.3 (34.8) mg"}, {"measurement": "fe (0–48 h), geometric mean (CV%)", "setting": "[3]; [11]", "value": "15.3 (34.8) %"}, {"measurement": "Ae (0–48 h), geometric mean (CV%)", "setting": "[3]; [12]", "value": "21.0 (28.0) mg"}, {"measurement": "fe (0–48 h), geometric mean (CV%)", "setting": "[3]; [12]", "value": "10.5 (28.0) %"}, {"measurement": "Ae (0–48 h), geometric mean (CV%)", "setting": "[3]; [13]", "value": "50.7 (33.6) mg"}, {"measurement": "fe (0–48 h), geometric mean (CV%)", "setting": "[3]; [13]", "value": "12.7 (33.6) %"}, {"measurement": "Galectin-3 expression on human macrophages", "setting": "human macrophages", "value": "potently inhibited galectin-3 expression"}, {"measurement": "Maximum recommended starting dose (MRSD)", "setting": "[4]; calculated from the no observed adverse effect level in the toxicology species (mouse and dog)", "value": 162, "unit": "mg"}, {"measurement": "Maximum recommended starting dose (MRSD) in humans", "setting": "[4]; determined from the results of a murine PD study", "value": 9.6, "unit": "mg"}, {"measurement": "fraction unbound", "setting": "[5]", "value": 0.0534}]}
